The record followed here is US20120164731A1, “METHOD OF INDUCING DIFFERENTIATION FROM PLURIPOTENT STEM CELLS TO SKELETAL MUSCLE PROGENITOR CELLS” (KYOTO UNIVERSITY, priority 2009, published 2012).

Assay [1] concerns iPS-DsRed. The assay is described as follows: Induction of differentiation from primitive streak mesodermal cells to skeletal muscle progenitor cells (SM/C-2.6 FACS, Myf5 RT-PCR). Format: cell-based, mouse. Here is the method: (§1) Undifferentiated cells were detached from the dish as in the passage subculture, and twice washed with the differentiation induction basal medium. 10 ml of the culture medium for the first 3 days was added to a 10 cm cell culture dish coated with collagen type IV (Nitta Gelatin), and 500,000 undifferentiated iPS cells were seeded thereinto. The cells were cultured in an incubator adjusted to 37° C., 5% CO2, and 100% humidity for 3 days, after which the medium was replaced with the culture medium for the last 3 days. The cells were thus differentiation-induced for a total of 6 days, from which skeletal muscle progenitor cells were separated by the method of cell separation described below, and these were used in the subsequent experiments.
(§2) The mouse iPS cells induced by the above-described differentiation induction method were divided into a population of skeletal muscle progenitor cells and a population of other cells using FACS Aria (Becton Dickinson). The cells were stained using antibodies as described previously [Sakurai, H. et al., Stem Cells 24, 575-586 (2006)]. Three different rat monoclonal antibodies were used: APA5 (anti-PDGFRα), ECCD2 (anti-ECD) and SM/C-2.6. The former two were supplied by Dr. Nishikawa [Sakurai, H. et al., Stem Cells 24, 575-586 (2006)], and the remaining one by Dr. Yamamoto [Fukada, S. et al., Exp Cell Res., 296, 245-255 (2004)]. The APA5 and SM/C-2.6 were conjugated with biotin (PIERCE) and fluorescently labeled using streptavidin-APC as a secondary antibody. The ECCD2 was directly conjugating with Alexa488 (Molecular Probes) by a conventional method and fluorescently labeled. The fluorescently labeled cells were suspended in Hanks' balanced salt solution (Invitrogen) supplemented with 1% bovine serum albumin to obtain a cell density of 5,000,000 cells per mL, fluorescence was examined and analyzed using FACS Aria, and the PDGFRα-positive fraction was separated and recovered.
RNA was extracted from the recovered cells using Sepasol Reagent (Nacalai Tesque). cDNA was synthesized from the RNA using the SuperScriptll reverse transcription kit (Invitrogen). DNA was amplified by 25-35 cycles of PCR reaction using the ExTaq PCR reagent kit (Takara Bio) and the PTC200 thermal cycler (DNA engine), and analyzed by electrophoresis. The PCR primers shown below were used.
To find a method for effectively inducing the differentiation, the present inventors investigated the potential of the Wnt signal inducer LiCl, used alone or in combination with other growth factors, for inducing the differentiation of iPS cells into skeletal muscle progenitor cells. Selected growth factor candidates, i.e., Sonic Hedgehog (Shh) and IGF-1, were added to the differentiation medium for the last 3 days, and their influences on differentiation into skeletal muscle progenitor cells were examined (FIG. 3A). The iPS cell used was iPS-DsRed. The degree of differentiation into skeletal muscle progenitor cells was analyzed with the expression of SM/C-2.6 as an index. Also analyzed was the expression of Myf5, which is a skeletal muscle-specific transcription factor in the RNA as a whole. SM/C-2.6 is a marker capable of specifically staining satellite cells, which are skeletal muscle stem cells [Fukada, S. et al., Exp Cell Res., 296, 245-255 (2004)], and has been reported to enable the separation of skeletal muscle progenitor cells from a mouse ES cell induction system [Chang, H. et al., Generation of transplantable, functional satellite-like cells from mouse embryonic stem cells. Faseb J., 23: 1907-1919 (2009)].
First, the influence of the addition of Shh was determined. iPS-DsRed was induced to differentiate as illustrated in FIG. 3A. During the last 3 days, the cells were cultured in the presence of LiCl, alone or with the addition of Shh 20 ng/ml; the cells were induced to differentiate for a total of 6 days, stained with SM/C-2.6, and evaluated.

In assay [2] the test system is mouse iPS cells (iPS-Nanog-20D-17). Kind of assay: Induction of differentiation from iPS cells to primitive streak mesodermal cells (PDGFRα FACS, viable cell count). The class given is cell-based. As to conditions: for cell proliferation / survival: IGF-1 and/or HGF added or not. Here is the method:
Differentiation of iPS cells was induced using a serum-free basal medium for differentiation induction prepared by adding 0.2% bovine serum albumin (Sigma), 100 μM 2-mercaptoethanol (Invitrogen), 50 mU/L penicillin and 50 μg/L streptomycin to S-Clone SF-03 (Sanko Junyaku Co., Ltd.). Various growth factors were added to the medium, and their effects were examined. Eventually, the following growth factors were used at the concentrations indicated.
as §1, §2
With this in mind, a first experiment was performed to determine whether the addition of growth factors other than BMP4 supports the survival of iPS cells and promotes their differentiation into primitive streak mesodermal cells (hereinafter sometimes simply referred to as “mesoderm”). Activin A, IGF-1, and HGF were examined as growth factor candidates (FIG. 1A, italicized). With Activin A added to all culture conditions examined, 4 conditions were analyzed: “neither IGF-1 nor HGF was added”, “IGF-1 was added alone”, “HGF was added alone”, and “both were added”. The iPS cell used was iPS-Nanog-20D-17. […] However, the viable cell count was about 3 times higher in the IGF-1-alone addition group than in the IGF-1-HGF-concurrent addition group (FIG. 1B, right).
The influences of the concentrations of BMP4 and Activin A in the induction of differentiation from iPS cells to primitive streak mesodermal cells were examined. Specifically, of the addition conditions of Activin A 10 ng/ml, BMP4 10 ng/ml, and IGF-1 10 ng/ml determined in the previous section, the concentration of Activin A alone (FIG. 2A) or BMP4 alone (FIG. 2B) was changed, and the expression of PDGFRα was evaluated by FACS.

Assay [3] deals with iPS cells. Kind of assay: Timing of LiCl addition, appearance efficiency of PDGFRα-positive fraction by FACS. Format: cell-based, mouse. The conditions noted are these: continuous addition of LiCl from day 1 or day 2 from start of differentiation induction. Here is the method:
A method of increasing the appearance efficiency of skeletal muscle progenitor cells derived from iPS cells was studied. Specifically, LiCl, which was added on day 3 from the start of the differentiation induction in the previous Examples, was added from a different day. Samples with addition of LiCl from day 0, 1, 2, 3 or 4 from the start of the differentiation induction were analyzed for the appearance efficiency of the PDGFRα-positive fraction by FACS analysis. As a result, not less than 60% of the induction efficiency could be reproduced by continuous addition of LiCl from day 1 or day 2 from the start of the differentiation induction (FIG. 8B). This method could also be reproduced with other iPS cell clone (iPS-Ng-20D-17).
On the technique in general: Flow cytometry measures light scatter and fluorescence of single cells or particles in a stream.

The mark [4] stands for this setting: IGF-1 experiment, IGF-1-free or IGF-1 added, irrespective of concentration.
The mark [5] stands for this setting: induction of skeletal muscle progenitor cells, last 3 days.
[6] abbreviates: iPS-Nanog-20D-17, Activin A added to all conditions.
The mark [7] stands for this setting: Shh experiment, LiCl alone or with Shh during last 3 days.

insulin-like growth factor-1 [IGF-1]: the “percentage of SM/C-2.6-positive cells” value in assay [1] (IGF-1 5 ng/ml addition group, last 3 days) turned out to be 16.8%. Also, the “expression of Myf5 (RT-PCR)” value in assay [1] (setting [4]) is on record as “the expression of Myf5 was evident”. The effective concentration in assay [1] (setting [5]) was not below 5 ng/mL. In assay [2] (iPS-Nanog-20D-17, Activin A added to all conditions, with BMP4, starting 3 days), the “differentiation rate (mesoderm differentiation, expression of PDGFRα as an index)” value came out at 61.5%. Besides, the “cell proliferation / survival” value in assay [2] (setting [6]) is given as “Cell proliferation was observed”. Also, the “viable cell count, IGF-1-alone addition group versus IGF-1-HGF-concurrent addition group” value in assay [2] (iPS-Nanog-20D-17, with Activin A) was “about 3 times”.

On to `[Cl-].[Li+]` [LiCl, lithium chloride, reference compound], for which the “induction efficiency (PDGFRα-positive fraction)” value in assay [3] is reported as “not less than 60%”. Moreover, the “percentage of SM/C-2.6-positive cells” value in assay [1] (IGF-1-free group, last 3 days) stood at 11.9%; in assay [1] (Shh-free group: LiCl alone during last 3 days, total 6 days), 28.5%. Besides, the “expression of Myf5 (RT-PCR)” value was “no expression of Myf5 was observed” in assay [1] (setting [4]) and “not observed at all” in assay [1] (setting [7]).

For the molecule “HGF: growth factor candidate examined with Activin A and IGF-1”, in assay [2] (setting [6]), the “cell proliferation / survival” value is “little cells surviving”.

For the molecule sonic hedgehog [Shh], the “percentage of SM/C-2.6-positive cells” value in assay [1] (Shh 20 ng/ml addition group, with LiCl, last 3 days, total 6 days) is on record as 38.8%. Further, in assay [1] (setting [7]), the “expression of Myf5 (RT-PCR)” value is “Myf5 was expressed”. Further, in assay [1] (setting [5]), the optimal concentration entry was “about 20 ng/ml”.

B1: bone morphogenetic protein 4 (protein, UniProt P12644 293-408, looked up)
Bone morphogenetic protein 4: SPKHHSQRARKKNKNCRRHSLYVDFSDVGWNDWIVAPPGYQAFYCHGDCPFPLADHLNSTNHAIVQTLVNSVNSSIPKACCVPTELSAISMLYLDEYDKVVLKNYQEMVVEGCGCR
notes: growth factor (Peprotech) added to the differentiation medium for the first 3 days
As to B1, the “viable cell count when BMP4 concentration decreased” value in assay [2] (Activin A 10 ng/ml, IGF-1 10 ng/ml) is listed as “remained nearly constant”. Also, the “percentage of PDGFRα-positive cells” value in assay [2] (BMP4 10 ng/ml, Activin A 10 ng/ml, IGF-1 10 ng/ml) is 44.7%; in assay [2] (BMP4 at all concentrations of 5 ng/ml or less, Activin A 10 ng/ml, IGF-1 10 ng/ml), 25-28%.

B2: Activin A (protein, UniProt P08476 311-426, looked up)
Inhibin beta A chain: GLECDGKVNICCKKQFFVSFKDIGWNDWIIAPSGYHANYCEGECPSHIAGTSGSSLSFHSTVINHYRMRGHSPFANLKSCCVPTKLRPMSMLYYDDGQNIIKKDIQNMIVEECGCS
modifications: Inhibin beta A chain
notes: as for B1
B2: the “percentage of PDGFRα-positive cells induced” value in assay [2] (Activin A at 5 ng/ml or more, BMP4 10 ng/ml, IGF-1 10 ng/ml) is recorded as “exceeded 40%”. For the same molecule, the “viable cell count for Activin A 0 ng/ml compared with 10 ng/ml” value in assay [2] (BMP4 10 ng/ml, IGF-1 10 ng/ml) was “about one-sixth level”. Also, the “concentrations at which more effective” value in assay [2] (based on PDGFRα-positive percentage and viable cell count) was 5 to 10 ng/mL. The “cell proliferation / survival” value in assay [2] (setting [6]) was “some cells survived”.
